Source: patent publication US10815230B2, “Casein kinase 1 delta inhibitor” (ELECTROPHORETICS LIMITED, priority 2015, dated 2020)

Columns and labels:
Test in all cases: KINOMEscan binding assay
Conditions in all cases: read-out: % Ctrl @ 10000 nM
[1] = target: ABL1 (Y253F) phosphorylated (Homo sapiens, UniProt P00519, Y253F)
ABL2 = ABL2 (Homo sapiens, UniProt P42684)
AMPK-alpha2 = AMPK-alpha2 (Homo sapiens, UniProt P54646)
ANKK1 = ANKK1 (Homo sapiens, UniProt Q8NFD2)
ARK5 = ARK5 (Homo sapiens, UniProt O60285)
AURKC = AURKC (Homo sapiens, UniProt Q9UQB9)
AXL = AXL (Homo sapiens, UniProt P30530)
BMX = BMX (Homo sapiens, UniProt P51813)
CDC2L2 = CDC2L2 (Homo sapiens, UniProt Q9UQ88)
CLK2 = CLK2 (Homo sapiens, UniProt P49760)
DAPK1 = DAPK1 (Homo sapiens, UniProt P53355)
DAPK2 = DAPK2 (Homo sapiens, UniProt Q9UIK4)
DRAK1 = DRAK1 (Homo sapiens, UniProt Q9UEE5)
[2] = target: EGFR (L747-S752del, P753S) (Homo sapiens, UniProt P00533, DEL747-752/P753S)
EPHA3 = EPHA3 (Homo sapiens, UniProt P29320)
FAK = FAK (Homo sapiens, UniProt Q05397)
FGFR4 = FGFR4 (Homo sapiens, UniProt P22455)
GCN2 (Kin.Dom.2, S808G) = GCN2 (Kin.Dom.2, S808G) (Homo sapiens, UniProt Q9P2K8, S808G)
ITK = ITK (Homo sapiens, UniProt Q08881)
KIT (V559D, V654A) = KIT (V559D, V654A) (Homo sapiens, UniProt P10721, V559D/V654A)
LRRK2 = LRRK2 (Homo sapiens, UniProt Q5S007)
MELK = MELK (Homo sapiens, UniProt Q14680)
MERTK = MERTK (Homo sapiens, UniProt Q12866)
MINK = MINK (Homo sapiens, UniProt Q8N4C8)
PCTK2 = PCTK2 (Homo sapiens, UniProt Q00537)
PHKG2 = PHKG2 (Homo sapiens, UniProt P15735)
PIK3CA (E542K) = PIK3CA (E542K) (Homo sapiens, UniProt P42336, E542K)
PIK3CA (E545A) = PIK3CA (E545A) (Homo sapiens, UniProt P42336, E545A)
PIM1 = PIM1 (Homo sapiens, UniProt P11309)
PIP5K1A = PIP5K1A (Homo sapiens, UniProt Q99755)
PLK1 = PLK1 (Homo sapiens, UniProt P53350)
RIOK1 = RIOK1 (Homo sapiens, UniProt Q9BRS2)
RIOK2 = RIOK2 (Homo sapiens, UniProt Q9BVS4)
ROCK1 = ROCK1 (Homo sapiens, UniProt Q13464)
ROS1 = ROS1 (Homo sapiens, UniProt P08922)
[3] = target: RPS6KA5 Kin.Dom.1-N-terminal (Homo sapiens, UniProt O75582)
[4] = target: RSK1 Kin.Dom.2-C-terminal (Homo sapiens, UniProt Q15418)
S6K1 = S6K1 (Homo sapiens, UniProt P23443)
SLK = SLK (Homo sapiens, UniProt Q9H2G2)
TNIK = TNIK (Homo sapiens, UniProt Q9UKE5)
TNK2 = TNK2 (Homo sapiens, UniProt Q07912)
TXK = TXK (Homo sapiens, UniProt P42681)

Sequence of ITK (Q08881 whole entry): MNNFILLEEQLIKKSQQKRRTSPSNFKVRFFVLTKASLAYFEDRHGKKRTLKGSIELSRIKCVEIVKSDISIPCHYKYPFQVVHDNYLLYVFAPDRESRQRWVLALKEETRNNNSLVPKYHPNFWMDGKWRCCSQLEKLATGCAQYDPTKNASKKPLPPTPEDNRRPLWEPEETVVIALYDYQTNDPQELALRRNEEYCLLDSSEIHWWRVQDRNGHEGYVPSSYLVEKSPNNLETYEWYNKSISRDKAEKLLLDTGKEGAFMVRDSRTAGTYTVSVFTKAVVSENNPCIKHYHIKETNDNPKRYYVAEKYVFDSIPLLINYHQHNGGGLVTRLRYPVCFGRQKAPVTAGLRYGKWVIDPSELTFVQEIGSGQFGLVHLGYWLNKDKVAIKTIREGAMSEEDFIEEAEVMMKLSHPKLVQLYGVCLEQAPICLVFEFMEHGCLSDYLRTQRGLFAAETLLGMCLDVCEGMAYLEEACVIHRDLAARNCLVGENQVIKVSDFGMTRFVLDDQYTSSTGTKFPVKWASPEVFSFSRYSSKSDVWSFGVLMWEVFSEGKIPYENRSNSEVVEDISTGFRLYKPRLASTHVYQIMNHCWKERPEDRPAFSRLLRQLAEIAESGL
Sequence of PLK1 (P53350 whole entry): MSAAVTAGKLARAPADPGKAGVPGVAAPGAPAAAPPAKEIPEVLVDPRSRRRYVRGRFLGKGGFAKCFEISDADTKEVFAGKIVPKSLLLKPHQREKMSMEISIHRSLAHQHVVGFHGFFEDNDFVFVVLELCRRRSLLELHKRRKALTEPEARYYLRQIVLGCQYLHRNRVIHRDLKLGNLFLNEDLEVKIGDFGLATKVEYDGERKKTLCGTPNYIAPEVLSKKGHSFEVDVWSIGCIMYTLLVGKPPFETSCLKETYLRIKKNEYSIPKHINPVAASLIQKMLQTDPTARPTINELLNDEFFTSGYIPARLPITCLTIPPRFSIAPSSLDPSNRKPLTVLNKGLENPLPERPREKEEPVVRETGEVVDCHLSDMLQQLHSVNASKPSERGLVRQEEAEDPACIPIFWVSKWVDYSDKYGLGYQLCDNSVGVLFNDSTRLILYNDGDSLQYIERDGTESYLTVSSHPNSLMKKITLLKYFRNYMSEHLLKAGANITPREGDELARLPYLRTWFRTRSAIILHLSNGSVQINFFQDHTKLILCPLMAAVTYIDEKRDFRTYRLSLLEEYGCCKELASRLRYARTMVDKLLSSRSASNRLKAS
Sequence of SLK (Q9H2G2 whole entry): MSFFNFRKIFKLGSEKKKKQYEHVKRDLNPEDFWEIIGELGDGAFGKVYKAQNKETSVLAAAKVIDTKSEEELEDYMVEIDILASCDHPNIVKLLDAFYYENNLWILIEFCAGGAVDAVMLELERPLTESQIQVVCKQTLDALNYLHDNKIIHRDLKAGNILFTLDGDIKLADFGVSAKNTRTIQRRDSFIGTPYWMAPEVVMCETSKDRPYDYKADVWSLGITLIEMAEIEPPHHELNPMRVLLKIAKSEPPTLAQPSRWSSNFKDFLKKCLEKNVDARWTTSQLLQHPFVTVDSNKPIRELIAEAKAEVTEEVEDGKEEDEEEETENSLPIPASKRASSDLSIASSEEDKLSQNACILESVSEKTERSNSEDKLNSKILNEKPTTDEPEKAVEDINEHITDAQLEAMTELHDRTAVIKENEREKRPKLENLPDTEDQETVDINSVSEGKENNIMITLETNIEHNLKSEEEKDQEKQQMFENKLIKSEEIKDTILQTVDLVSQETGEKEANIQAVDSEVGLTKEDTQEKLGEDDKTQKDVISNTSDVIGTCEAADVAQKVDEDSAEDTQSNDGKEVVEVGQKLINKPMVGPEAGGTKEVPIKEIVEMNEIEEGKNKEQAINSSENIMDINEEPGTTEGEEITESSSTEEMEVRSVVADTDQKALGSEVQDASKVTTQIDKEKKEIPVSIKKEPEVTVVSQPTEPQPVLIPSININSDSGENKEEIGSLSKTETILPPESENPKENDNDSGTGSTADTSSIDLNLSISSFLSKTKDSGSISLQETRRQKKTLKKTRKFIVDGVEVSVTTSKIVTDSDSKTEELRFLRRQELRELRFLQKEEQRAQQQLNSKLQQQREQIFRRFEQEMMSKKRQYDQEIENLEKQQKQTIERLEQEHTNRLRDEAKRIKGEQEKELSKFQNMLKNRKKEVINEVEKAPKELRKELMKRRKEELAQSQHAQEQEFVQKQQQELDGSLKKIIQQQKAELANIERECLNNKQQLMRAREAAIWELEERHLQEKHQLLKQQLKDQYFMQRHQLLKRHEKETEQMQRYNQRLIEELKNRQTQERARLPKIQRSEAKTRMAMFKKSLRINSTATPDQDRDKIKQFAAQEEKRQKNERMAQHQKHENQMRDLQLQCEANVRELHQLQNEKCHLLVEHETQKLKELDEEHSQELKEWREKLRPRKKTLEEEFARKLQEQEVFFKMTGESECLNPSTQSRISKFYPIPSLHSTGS
Sequence of PIK3CA (E545A) (P42336 whole entry E545A): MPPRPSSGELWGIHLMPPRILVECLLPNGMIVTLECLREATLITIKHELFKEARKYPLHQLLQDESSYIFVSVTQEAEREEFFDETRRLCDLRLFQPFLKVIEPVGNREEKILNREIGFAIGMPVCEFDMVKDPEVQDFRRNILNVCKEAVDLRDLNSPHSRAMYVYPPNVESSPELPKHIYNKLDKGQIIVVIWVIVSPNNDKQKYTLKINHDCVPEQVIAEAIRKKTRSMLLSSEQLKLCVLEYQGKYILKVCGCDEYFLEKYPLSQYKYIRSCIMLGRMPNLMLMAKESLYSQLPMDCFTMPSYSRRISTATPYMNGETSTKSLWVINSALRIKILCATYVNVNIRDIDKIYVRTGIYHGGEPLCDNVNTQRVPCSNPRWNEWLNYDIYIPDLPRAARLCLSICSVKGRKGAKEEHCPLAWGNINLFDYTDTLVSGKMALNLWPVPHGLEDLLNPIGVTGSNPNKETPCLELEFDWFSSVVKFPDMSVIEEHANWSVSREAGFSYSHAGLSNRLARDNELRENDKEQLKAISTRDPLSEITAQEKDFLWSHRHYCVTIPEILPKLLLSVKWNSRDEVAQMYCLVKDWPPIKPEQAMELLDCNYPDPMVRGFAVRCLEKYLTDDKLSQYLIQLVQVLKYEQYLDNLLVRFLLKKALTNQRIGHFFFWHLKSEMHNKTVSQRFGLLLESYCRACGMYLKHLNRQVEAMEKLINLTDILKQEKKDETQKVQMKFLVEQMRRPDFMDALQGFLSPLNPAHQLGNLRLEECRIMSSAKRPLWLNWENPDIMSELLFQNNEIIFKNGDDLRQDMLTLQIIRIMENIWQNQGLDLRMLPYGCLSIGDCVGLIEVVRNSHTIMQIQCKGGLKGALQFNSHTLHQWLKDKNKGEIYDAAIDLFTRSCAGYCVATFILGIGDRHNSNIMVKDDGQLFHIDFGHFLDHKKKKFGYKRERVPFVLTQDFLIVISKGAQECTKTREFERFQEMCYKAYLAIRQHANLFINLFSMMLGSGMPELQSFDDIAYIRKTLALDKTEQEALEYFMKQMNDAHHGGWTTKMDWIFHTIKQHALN
Sequence of ANKK1 (Q8NFD2 whole entry): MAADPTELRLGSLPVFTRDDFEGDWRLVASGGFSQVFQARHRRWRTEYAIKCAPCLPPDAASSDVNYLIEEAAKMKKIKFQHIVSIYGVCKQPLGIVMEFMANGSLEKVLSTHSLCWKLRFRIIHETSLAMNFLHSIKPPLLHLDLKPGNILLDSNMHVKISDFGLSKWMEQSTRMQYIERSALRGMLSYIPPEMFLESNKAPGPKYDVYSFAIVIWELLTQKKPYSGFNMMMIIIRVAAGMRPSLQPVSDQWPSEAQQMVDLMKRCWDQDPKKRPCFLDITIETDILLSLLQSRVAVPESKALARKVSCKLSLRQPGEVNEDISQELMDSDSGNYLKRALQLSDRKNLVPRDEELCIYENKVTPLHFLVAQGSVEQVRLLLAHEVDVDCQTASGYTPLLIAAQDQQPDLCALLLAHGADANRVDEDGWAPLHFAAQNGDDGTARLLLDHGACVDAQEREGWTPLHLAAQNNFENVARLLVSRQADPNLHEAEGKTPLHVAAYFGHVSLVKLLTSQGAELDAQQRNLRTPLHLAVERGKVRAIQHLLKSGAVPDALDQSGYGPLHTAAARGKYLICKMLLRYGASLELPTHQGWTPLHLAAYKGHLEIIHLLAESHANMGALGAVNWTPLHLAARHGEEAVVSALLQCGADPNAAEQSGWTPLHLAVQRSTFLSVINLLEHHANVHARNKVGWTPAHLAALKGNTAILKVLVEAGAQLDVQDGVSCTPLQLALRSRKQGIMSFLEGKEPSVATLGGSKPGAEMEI
Sequence of RSK1 Kin.Dom.2-C-terminal (Q15418 418-675 limits assumed): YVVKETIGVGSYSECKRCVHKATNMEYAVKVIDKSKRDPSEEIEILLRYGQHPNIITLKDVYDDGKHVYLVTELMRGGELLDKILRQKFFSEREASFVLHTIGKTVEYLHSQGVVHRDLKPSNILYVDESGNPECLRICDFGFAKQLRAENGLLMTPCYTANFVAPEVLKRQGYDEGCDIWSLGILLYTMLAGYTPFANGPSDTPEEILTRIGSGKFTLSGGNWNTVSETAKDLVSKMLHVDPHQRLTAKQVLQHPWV
Sequence of AURKC (Q9UQB9 whole entry): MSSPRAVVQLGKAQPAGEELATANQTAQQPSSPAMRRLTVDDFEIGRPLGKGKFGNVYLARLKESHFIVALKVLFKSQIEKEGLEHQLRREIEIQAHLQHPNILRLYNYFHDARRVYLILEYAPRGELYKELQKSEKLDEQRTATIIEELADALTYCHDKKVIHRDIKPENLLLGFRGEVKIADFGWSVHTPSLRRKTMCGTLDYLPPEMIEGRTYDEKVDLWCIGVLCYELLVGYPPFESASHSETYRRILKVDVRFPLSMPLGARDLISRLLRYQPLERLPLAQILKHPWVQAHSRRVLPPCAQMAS
Sequence of PIK3CA (E542K) (P42336 whole entry E542K): as the sequence (P42336 whole entry E545A) above, with E542K, A545E counted along it

## Nc1ncc(-c2nc3ccccc3o2)c(-c2ccncc2)n1 [Comparative Compound 324, 5-(1,3-benzoxazol-2-yl)-4-(pyridine-4-yl)pyrimidin-2-amine]
[1]
  remaining binding at 10 µM: 78%
ABL2
  remaining binding at 10 µM: 85%
AMPK-alpha2
  remaining binding at 10 µM: 100%
ANKK1
  remaining binding at 10 µM: 71%
ARK5
  remaining binding at 10 µM: 100%
AURKC
  remaining binding at 10 µM: 100%
AXL
  remaining binding at 10 µM: 100%
BMX
  remaining binding at 10 µM: 100%
CDC2L2
  remaining binding at 10 µM: 100%
CLK2
  remaining binding at 10 µM: 78%
DAPK1
  remaining binding at 10 µM: 87%
DAPK2
  remaining binding at 10 µM: 100%
DRAK1
  remaining binding at 10 µM: 100%
[2]
  remaining binding at 10 µM: 57%
EPHA3
  remaining binding at 10 µM: 86%
FAK
  remaining binding at 10 µM: 99%
FGFR4
  remaining binding at 10 µM: 100%
GCN2 (Kin.Dom.2, S808G)
  remaining binding at 10 µM: 98%
ITK
  remaining binding at 10 µM: 86%
KIT (V559D, V654A)
  remaining binding at 10 µM: 79%
LRRK2
  remaining binding at 10 µM: 83%
MELK
  remaining binding at 10 µM: 80%
MERTK
  remaining binding at 10 µM: 99%
MINK
  remaining binding at 10 µM: 56%
PCTK2
  remaining binding at 10 µM: 99%
PHKG2
  remaining binding at 10 µM: 100%
PIK3CA (E542K)
  remaining binding at 10 µM: 98%
PIK3CA (E545A)
  remaining binding at 10 µM: 76%
PIM1
  remaining binding at 10 µM: 98%
PIP5K1A
  remaining binding at 10 µM: 96%
PLK1
  remaining binding at 10 µM: 90%
RIOK1
  remaining binding at 10 µM: 100%
RIOK2
  remaining binding at 10 µM: 87%
ROCK1
  remaining binding at 10 µM: 96%
ROS1
  remaining binding at 10 µM: 100%
[3]
  remaining binding at 10 µM: 95%
[4]
  remaining binding at 10 µM: 44%
S6K1
  remaining binding at 10 µM: 90%
SLK
  remaining binding at 10 µM: 63%
TNIK
  remaining binding at 10 µM: 78%
TNK2
  remaining binding at 10 µM: 100%
TXK
  remaining binding at 10 µM: 93%

## CNc1c(C(N)=O)c2ccccn2c1C(=O)c1ccc(F)cc1 [Compound A, 2-methyl-amino-3-[(4-fluorophenyl)carbonyl]indolizine-1-carboxamide]
[1]
  remaining binding at 10 µM: 50%
ABL2
  remaining binding at 10 µM: 68%
AMPK-alpha2
  remaining binding at 10 µM: 99%
ANKK1
  remaining binding at 10 µM: 68%
ARK5
  remaining binding at 10 µM: 85%
AURKC
  remaining binding at 10 µM: 100%
AXL
  remaining binding at 10 µM: 95%
BMX
  remaining binding at 10 µM: 91%
CDC2L2
  remaining binding at 10 µM: 91%
CLK2
  remaining binding at 10 µM: 57%
DAPK1
  remaining binding at 10 µM: 77%
DAPK2
  remaining binding at 10 µM: 85%
DRAK1
  remaining binding at 10 µM: 95%
[2]
  remaining binding at 10 µM: 11%
EPHA3
  remaining binding at 10 µM: 68%
FAK
  remaining binding at 10 µM: 92%
FGFR4
  remaining binding at 10 µM: 100%
GCN2 (Kin.Dom.2, S808G)
  remaining binding at 10 µM: 66%
ITK
  remaining binding at 10 µM: 78%
KIT (V559D, V654A)
  remaining binding at 10 µM: 16%
LRRK2
  remaining binding at 10 µM: 82%
MELK
  remaining binding at 10 µM: 71%
MERTK
  remaining binding at 10 µM: 55%
MINK
  remaining binding at 10 µM: 57%
PCTK2
  remaining binding at 10 µM: 83%
PHKG2
  remaining binding at 10 µM: 91%
PIK3CA (E542K)
  remaining binding at 10 µM: 90%
PIK3CA (E545A)
  remaining binding at 10 µM: 73%
PIM1
  remaining binding at 10 µM: 92%
PIP5K1A
  remaining binding at 10 µM: 100%
PLK1
  remaining binding at 10 µM: 82%
RIOK1
  remaining binding at 10 µM: 100%
RIOK2
  remaining binding at 10 µM: 66%
ROCK1
  remaining binding at 10 µM: 100%
ROS1
  remaining binding at 10 µM: 100%
[3]
  remaining binding at 10 µM: 96%
[4]
  remaining binding at 10 µM: 23%
S6K1
  remaining binding at 10 µM: 82%
SLK
  remaining binding at 10 µM: 100%
TNIK
  remaining binding at 10 µM: 53%
TNK2
  remaining binding at 10 µM: 81%
TXK
  remaining binding at 10 µM: 45%
